This test deals with Potassium voltage-gated channel subfamily A member 5 (Homo sapiens) (UniProt P22460). Description: Inhibition of Kv1.5 ion channel expressed in HEK293 cells at 10 uM by FLIPR assay. It is filed as cell-based.

In general, inhibition refers to the percentage by which the read-out fell short of the control. The low end stands for a response near the control, the high end for a response far below the control.

Chain of Potassium voltage-gated channel subfamily A member 5 (Homo sapiens) (P22460 whole entry): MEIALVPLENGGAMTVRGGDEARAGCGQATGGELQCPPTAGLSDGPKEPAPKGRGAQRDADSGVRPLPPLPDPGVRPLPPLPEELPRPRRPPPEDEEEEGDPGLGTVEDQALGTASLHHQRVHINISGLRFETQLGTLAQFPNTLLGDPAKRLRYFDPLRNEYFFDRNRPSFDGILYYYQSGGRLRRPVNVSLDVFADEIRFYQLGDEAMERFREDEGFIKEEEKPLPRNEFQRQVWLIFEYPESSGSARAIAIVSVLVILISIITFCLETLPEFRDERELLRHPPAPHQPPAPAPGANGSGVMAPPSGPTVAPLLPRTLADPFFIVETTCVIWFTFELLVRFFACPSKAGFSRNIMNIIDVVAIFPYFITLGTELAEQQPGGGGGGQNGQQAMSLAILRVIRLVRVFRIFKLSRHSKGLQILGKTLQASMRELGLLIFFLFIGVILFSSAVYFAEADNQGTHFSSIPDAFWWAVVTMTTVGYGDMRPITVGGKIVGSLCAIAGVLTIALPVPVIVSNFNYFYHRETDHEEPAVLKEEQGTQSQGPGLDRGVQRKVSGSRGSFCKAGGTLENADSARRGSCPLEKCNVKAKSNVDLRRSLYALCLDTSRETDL

`O=C(c1cccc(NS(=O)(=O)c2ccccn2)c1)N1CCN(c2nc3ccc(Cl)cc3s2)CC1` showed an inhibition of 75.1%.
As for `O=C(c1ccccc1NS(=O)(=O)c1ccccn1)N1CCN(c2nc3ccc(Br)cc3s2)CC1`, the figure is 100%.
As to `O=S(=O)(Nc1ccccc1OC1CCN(c2nc3ccc(Br)cc3s2)CC1)c1ccccn1`, the inhibition stood at 100%.
Turning to `O=C(c1ccc(NS(=O)(=O)c2ccccn2)cc1)N1CCN(c2nc3ccc(F)cc3s2)CC1`, the inhibition was 100%.
Compound `O=S(=O)(Nc1ccccc1OCC1CCN(c2nc3ccccc3s2)C1)c1ccccn1` (stereo not given) had an inhibition of 76%.

The record behind these values is ChEMBL document CHEMBL2146471, “Derivatives of heteroarylsulfonamides, their preparation, and their application in human therapy: patent highlight” (ACS Med Chem Lett, 2012).
